Measured values published in patent US20250381157A1, “ANTIMICROBIAL COMPOUNDS” (priority 2022, published 2025).

How the values were obtained:
[1] = molecular target: T1, recombinant human HDAC8 (Homo sapiens, UniProt Q9BY41); assay: HDAC8 in-vitro enzymatic assay; assay type: biochemical
T1 construct: purchased BPS 50008
T1 sequence (Q9BY41 1-377): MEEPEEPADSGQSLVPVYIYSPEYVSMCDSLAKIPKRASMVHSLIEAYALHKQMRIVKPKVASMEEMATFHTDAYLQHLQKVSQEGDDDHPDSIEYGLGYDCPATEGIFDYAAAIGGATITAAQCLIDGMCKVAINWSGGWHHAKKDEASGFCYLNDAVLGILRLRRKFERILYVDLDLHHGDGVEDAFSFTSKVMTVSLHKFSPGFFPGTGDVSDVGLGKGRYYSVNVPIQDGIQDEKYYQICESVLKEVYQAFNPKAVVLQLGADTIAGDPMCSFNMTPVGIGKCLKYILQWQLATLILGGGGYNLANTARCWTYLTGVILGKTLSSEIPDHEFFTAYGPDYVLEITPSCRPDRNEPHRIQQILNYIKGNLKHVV
Description: (§1) All of the compounds were dissolved in DMSO. A series of dilutions of the compounds were prepared with 10% DMSO in HDAC assay buffer and 5 μl of the dilution was added to a 50 μl reaction so that the final concentration of DMSO was 1% in all of reactions. The compounds were pre-incubated in duplicate at RT for 30 minutes in a mixture containing HDAC assay buffer, 5 μg BSA, HDAC enzyme and a test compound. After 30 minutes, the enzymatic reactions were initiated by the addition of HDAC substrate to a final concentration of 20 μM or 2 μM. The enzymatic reaction proceeded for 30 minutes at 37° C. After enzymatic reactions, 50 μl of 2×HDAC Developer was added to each well for the HDAC enzymes and the plate was incubated at room temperature for an additional 15 minutes. Fluorescence intensity was measured at an excitation of 360 nm and an emission of 460 nm using a Tecan Infinite M1000 microplate reader.
(§2) HDAC activity assays were performed in duplicates at each concentration. The fluorescent intensity data were analyzed using the computer software, Graphpad Prism. […] The percent activity in the presence of each compound was calculated according to the following equation: % activity=(F−Fb)/(Ft−Fb), where F=the fluorescent intensity in the presence of the compound. […] The IC50 value was determined by the concentration causing a half-maximal percent activity.

[2] = in vivo; conditions: mouse, po
[3] = molecular target: T2, recombinant human HDAC3 (Homo sapiens, UniProt O15379); assay: HDAC3 in-vitro enzymatic assay; assay type: biochemical
T2 construct: purchased BPS 50003
T2 sequence (O15379 whole entry): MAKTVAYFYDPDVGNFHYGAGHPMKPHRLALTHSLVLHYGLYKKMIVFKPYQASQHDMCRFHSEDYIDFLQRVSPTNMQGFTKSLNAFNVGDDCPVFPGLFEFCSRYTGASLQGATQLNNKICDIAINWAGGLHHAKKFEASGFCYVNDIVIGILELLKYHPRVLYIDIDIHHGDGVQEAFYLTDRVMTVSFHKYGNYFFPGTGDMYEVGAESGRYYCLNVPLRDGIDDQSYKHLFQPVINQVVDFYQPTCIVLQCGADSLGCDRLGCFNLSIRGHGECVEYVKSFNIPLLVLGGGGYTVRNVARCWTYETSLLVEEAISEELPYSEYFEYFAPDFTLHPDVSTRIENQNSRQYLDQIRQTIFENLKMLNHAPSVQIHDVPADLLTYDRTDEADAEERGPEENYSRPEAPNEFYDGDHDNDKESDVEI
T2 sequence (Q9Y618 395-489 partner limits assumed): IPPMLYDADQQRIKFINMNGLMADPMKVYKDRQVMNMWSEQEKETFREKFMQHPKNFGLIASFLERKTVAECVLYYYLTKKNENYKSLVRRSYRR
Description: as §1, §2

[4] = molecular target: T3, recombinant human HDAC6 (Homo sapiens, UniProt Q9UBN7); assay: HDAC6 in-vitro enzymatic assay; assay type: biochemical
T3 construct: purchased BPS 50006
T3 sequence (Q9UBN7 1-1215): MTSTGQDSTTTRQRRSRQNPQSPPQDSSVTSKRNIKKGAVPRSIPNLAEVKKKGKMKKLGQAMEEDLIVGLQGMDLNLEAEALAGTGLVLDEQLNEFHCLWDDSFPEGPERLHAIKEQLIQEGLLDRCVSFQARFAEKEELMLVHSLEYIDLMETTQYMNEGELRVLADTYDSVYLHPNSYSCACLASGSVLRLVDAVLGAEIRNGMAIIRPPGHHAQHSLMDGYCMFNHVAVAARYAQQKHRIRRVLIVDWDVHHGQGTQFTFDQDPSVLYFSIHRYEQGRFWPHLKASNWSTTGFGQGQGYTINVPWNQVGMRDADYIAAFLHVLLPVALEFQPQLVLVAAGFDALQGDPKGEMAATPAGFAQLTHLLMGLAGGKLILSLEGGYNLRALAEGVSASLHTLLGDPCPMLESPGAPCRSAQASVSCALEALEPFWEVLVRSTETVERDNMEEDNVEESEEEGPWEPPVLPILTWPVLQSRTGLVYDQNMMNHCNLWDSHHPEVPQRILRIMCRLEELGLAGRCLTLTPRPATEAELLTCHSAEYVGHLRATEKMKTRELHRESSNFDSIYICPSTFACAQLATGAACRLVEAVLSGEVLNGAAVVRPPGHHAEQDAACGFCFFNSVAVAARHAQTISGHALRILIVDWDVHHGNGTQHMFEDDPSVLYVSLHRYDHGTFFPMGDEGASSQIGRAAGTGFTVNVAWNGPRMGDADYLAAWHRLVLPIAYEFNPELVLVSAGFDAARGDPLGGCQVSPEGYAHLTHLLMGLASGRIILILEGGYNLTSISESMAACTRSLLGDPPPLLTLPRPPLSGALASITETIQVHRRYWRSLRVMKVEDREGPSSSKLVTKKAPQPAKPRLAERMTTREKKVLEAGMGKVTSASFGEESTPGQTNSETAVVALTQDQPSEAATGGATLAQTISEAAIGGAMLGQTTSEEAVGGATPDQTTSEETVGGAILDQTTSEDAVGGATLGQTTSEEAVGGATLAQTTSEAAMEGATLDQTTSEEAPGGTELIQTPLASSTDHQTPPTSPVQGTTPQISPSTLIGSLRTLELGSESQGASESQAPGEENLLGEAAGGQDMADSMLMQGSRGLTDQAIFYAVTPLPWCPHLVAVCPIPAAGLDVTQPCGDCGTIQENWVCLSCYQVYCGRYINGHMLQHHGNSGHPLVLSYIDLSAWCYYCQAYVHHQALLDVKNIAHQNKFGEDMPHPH
Description: The purpose of the study is to determine the effects of Compound 1 on the enzymatic activities of recombinant human HDAC1, HDAC2, HDAC3, HDAC4, HDAC5, HDAC6, HDAC7, HDAC8, and HDAC9 using in-vitro enzymatic assays.
as §1, with “After enzymatic reactions, 50 μl of 2×HDAC Developer was added to each well for the HDAC enzymes and the plate was incubated at room temperature for an additional 15 minutes.” left out
as §2

C#CCOCC(=O)Nc1ccc(C(=O)Nc2ccccc2N)cc1 [Compound 1, N-(2-aminophenyl)-4-{2-[(prop-2-yn-1-yl)oxy]acetamido}benzamide]
IC50 [1]: > 200 µM | inhibition at 200 µM ([1]; @ 200 μM, read-out: Inhib. HDAC8): 42% | MTD at 7 days ([2]; 7 Days PO once daily MTD - mouse): > 50 mg/kg | MTD at 7 days ([2]; 7 Days PO twice daily MTD - mouse): 50 mg/kg | IC50 [3]: ≤ 1 µM | inhibition at 1 µM ([3]; @ 1 μM, read-out: Inhib. HDAC3): 61% | IC50 [4]: > 200 µM | Inhib. HDAC6 ([4]; @ 200 μM): No Inhib. @ 200 μM
